≈ marks a conversion by molar mass, not a printed value. Like-named read-outs stand apart in the source and are kept apart here.
Tests used:
S. aureus B1 = test: In vitro antibacterial activity (MIC), agar dilution technique; assay type: cell-based; conditions: Staphylococcus aureus
Method: (§1) The in vitro antibacterial activity of the compounds of the present invention against various test bacteria was measured by an agar dilution technique using sensitivity test agar (Eiken) as a test medium according to the MIC method specified by the Japan Chemotherapeutic Society.
(§2) The results are represented by the MIC value (minimum inhibitory concentration to microorganisms, mcg/ml), and shown in Table 1.

S. aureus J-109 = test: as above; assay type: cell-based; conditions: Staphylococcus aureus
Method: as §1, §2

[1] = in vivo; cited from earlier work
[2] = S. aureus B1, agar dilution, sensitivity test agar (Eiken), read-out: MIC value
[3] = J109, S. aureus J-109, agar dilution, sensitivity test agar (Eiken), read-out: MIC value

Row | MIC (S. aureus B1; [2]) [µg/mL] | MIC (S. aureus J-109; [3]) [µg/mL] | Structure (SMILES) | MIC (S. aureus B1; B1, read-out: MIC value) [µg/mL] | MIC (S. aureus J-109; J109, read-out: MIC value) [µg/mL] | oral absorption [1]
1 | 12.5 (≈ 14.4 µM) | 12.5 (≈ 14.4 µM) | CC[C@H]1OC(=O)[C@H](C)[C@@H](O[C@H]2C[C@@](C)(OC)[C@@H](O)[C@H](C)O2)[C@H](C)[C@@H](O[C@@H]2O[C@H](C)C[C@H](N(C)C)[C@H]2O)[C@](C)(OC)C[C@@H](C)C(=NOC(C)c2ccccc2)[C@H](C)[C@@H](O)[C@]1(C)O (stereo partly shown) [D] | – | – | –
2 | > 100 | > 100 | CC[C@H]1OC(=O)[C@H](C)[C@@H](O[C@H]2C[C@@](C)(OC)[C@@H](O)[C@H](C)O2)[C@H](C)[C@@H](O[C@@H]2O[C@H](C)C[C@H](N(C)C)[C@H]2O)[C@](C)(OC)C[C@@H](C)C(=O)[C@H](C)[C@@H](O)[C@]1(C)O [b] | – | – | –
3 | 12.5 (≈ 14.1 µM) | 12.5 (≈ 14.1 µM) | CC[C@H]1OC(=O)[C@H](C)[C@@H](O[C@H]2C[C@@](C)(OC)[C@@H](O)[C@H](C)O2)[C@H](C)[C@@H](O[C@@H]2O[C@H](C)C[C@H](N(C)C)[C@H]2O)[C@](C)(OC)C[C@@H](C)C(=NOCc2c(F)cccc2F)[C@H](C)[C@@H](O)[C@]1(C)O [Compound No. 8] | – | – | –
4 | 25 (≈ 27.9 µM) | 25 (≈ 27.9 µM) | CC[C@H]1OC(=O)[C@H](C)[C@@H](O[C@H]2C[C@@](C)(OC)[C@@H](O)[C@H](C)O2)[C@H](C)[C@@H](O[C@@H]2O[C@H](C)C[C@H](N(C)C)[C@H]2O)[C@](C)(OC)C[C@@H](C)C(=NOCCCCc2ccccc2)[C@H](C)[C@@H](O)[C@]1(C)O [Compound No. 56] | – | – | –
5 | 12.5 (≈ 14 µM) | 12.5 (≈ 14 µM) | CC[C@H]1OC(=O)[C@H](C)[C@@H](O[C@H]2C[C@@](C)(OC)[C@@H](O)[C@H](C)O2)[C@H](C)[C@@H](O[C@@H]2O[C@H](C)C[C@H](N(C)C)[C@H]2O)[C@](C)(OC)C[C@@H](C)C(=NOCc2ccc(C(C)C)cc2)[C@H](C)[C@@H](O)[C@]1(C)O [Compound No. 55] | – | – | –
6 | > 100 | > 100 | CC[C@H]1OC(=O)[C@H](C)[C@@H](O[C@H]2C[C@@](C)(OC)[C@@H](O)[C@H](C)O2)[C@H](C)[C@@H](O[C@@H]2O[C@H](C)C[C@H](N(C)C)[C@H]2O)[C@](C)(OC)C[C@@H](C)C(=NOC)[C@H](C)[C@@H](O)[C@]1(C)O [d] | – | – | –
7 | > 100 | > 100 | CC[C@H]1OC(=O)[C@H](C)[C@@H](O[C@H]2C[C@@](C)(OC)[C@@H](O)[C@H](C)O2)[C@H](C)[C@@H](O[C@@H]2O[C@H](C)C[C@H](N(C)C)[C@H]2O)[C@](C)(O)C[C@@H](C)/C(=N\OCOCCOC)[C@H](C)[C@@H](O)[C@]1(C)O [c] | – | – | –
8 | 12.5 (≈ 14.3 µM) | 12.5 (≈ 14.3 µM) | CC[C@H]1OC(=O)[C@H](C)[C@@H](O[C@H]2C[C@@](C)(OC)[C@@H](O)[C@H](C)O2)[C@H](C)[C@@H](O[C@@H]2O[C@H](C)C[C@H](N(C)C)[C@H]2O)[C@](C)(OC)C[C@@H](C)C(=NOCC2CC3CCC2C3)[C@H](C)[C@@H](O)[C@]1(C)O (stereo partly shown) [Compound No. 45] | – | – | –

Continued, compound first:

Row | Structure (SMILES) | MIC (S. aureus B1; [2]) [µg/mL] | MIC (S. aureus J-109; [3]) [µg/mL] | MIC (S. aureus B1; B1, read-out: MIC value) [µg/mL] | MIC (S. aureus J-109; J109, read-out: MIC value) [µg/mL] | oral absorption [1]
9 | CC[C@H]1OC(=O)[C@H](C)[C@@H](O[C@H]2C[C@@](C)(OC)[C@@H](O)[C@H](C)O2)[C@H](C)[C@@H](O[C@@H]2O[C@H](C)C[C@H](N(C)C)[C@H]2O)[C@](C)(O)C[C@@H](C)C(=O)[C@H](C)[C@@H](O)[C@]1(C)O [a] | – | – | > 100 | > 100 | –
10 | CC[C@H]1OC(=O)[C@H](C)[C@@H](O[C@H]2C[C@@](C)(OC)[C@@H](O)[C@H](C)O2)[C@H](C)[C@@H](O[C@@H]2O[C@H](C)C[C@H](N(C)C)[C@H]2O)[C@](C)(O)C[C@@H](C)C(=O)[C@H](C)[C@@H](O)[C@]1(C)O [Erythromycin A] | – | – | – | – | low and inconsistent
11 | CC[C@H]1OC(=O)[C@H](C)[C@@H](O[C@H]2C[C@@](C)(OC)[C@@H](O)[C@H](C)O2)[C@H](C)[C@@H](O[C@@H]2O[C@H](C)C[C@H](N(C)C)[C@H]2O)[C@](C)(OC)C[C@@H](C)C(=NOCc2c(C)cc(C)cc2C)[C@H](C)[C@@H](O)[C@]1(C)O [Compound No. 1, 6-0-methylerythromycin A 9-[0-(2,4,6-trimethylbenzyl)oxime]] | 6.25 (≈ 6.98 µM) | 6.25 (≈ 6.98 µM) | – | – | –
12 | CC[C@H]1OC(=O)[C@H](C)[C@@H](O[C@H]2C[C@@](C)(OC)[C@@H](O)[C@H](C)O2)[C@H](C)[C@@H](O[C@@H]2O[C@H](C)C[C@H](N(C)C)[C@H]2O)[C@](C)(OC)C[C@@H](C)C(=NOCc2ccc(C(C)(C)C)cc2)[C@H](C)[C@@H](O)[C@]1(C)O [B] | 6.25 (≈ 6.87 µM) | 6.25 (≈ 6.87 µM) | – | – | –
13 | CC[C@H]1OC(=O)[C@H](C)[C@@H](O[C@H]2C[C@@](C)(OC)[C@@H](O)[C@H](C)O2)[C@H](C)[C@@H](O[C@@H]2O[C@H](C)C[C@H](N(C)C)[C@H]2O)[C@](C)(OC)C[C@@H](C)C(=NOCc2c3ccccc3cc3ccccc23)[C@H](C)[C@@H](O)[C@]1(C)O [A] | 6.25 (≈ 6.56 µM) | 6.25 (≈ 6.56 µM) | – | – | –
